# The supplement of paper PMC10307832
# Tests used:
# Experiment in all cases: relative viability (nuclei count vs DMSO), 5 days (fraction); higher = more cells survive
# [1] = tested on: NCI-H2347
# Summary of the method: (§1)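 Cells from lung cancer lines were seeded into 1536-well plates and, one day later, dosed by pin tool. Treatments were either a single drug or a fixed dose of an anchor drug with five library-drug doses (not always all listed) in √10 steps. After 5 days, nuclei were stained in a one-step fixation (final 0.05% Triton X-100, 1% formaldehyde, 1 ug/ml Hoechst) and counted on 4× images, and relative viability is the treated-to-vehicle nuclei ratio, as the median of duplicate plates.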
# [2] = tested on: LU99A
# Summary of the method: as §1
# [3] = tested on: H3255
# Summary of the method: as §1
# [4] = tested on: 201T
# Summary of the method: as §1
# [5] = tested on: HCC-44
# Summary of the method: as §1
# [6] = tested on: LK-2
# Summary of the method: as §1
# [7] = tested on: SW 1573
# Summary of the method: as §1
# [8] = tested on: A-427
# Summary of the method: as §1
# [9] = tested on: NCI-H23
# Summary of the method: as §1
# [10] = tested on: NCI-H460
# Summary of the method: as §1
# [11] = tested on: NCI-H650
# Summary of the method: as §1
# [12] = tested on: PC-3 [JPC-3]
# Summary of the method: as §1
# [13] = tested on: COR-L23
# Summary of the method: as §1
# [14] = tested on: SW 900
# Summary of the method: as §1
# [15] = tested on: NCI-H727
# Summary of the method: as §1
# [16] = tested on: NCI-H838
# Summary of the method: as §1
# [17] = tested on: NCI-H1793
# Summary of the method: as §1
# [18] = tested on: PC-14
# Summary of the method: as §1
# [19] = tested on: NCI-H1944
# Summary of the method: as §1
# [20] = tested on: LCLC-103H
# Summary of the method: as §1
# [21] = tested on: LCLC-97TM1
# Summary of the method: as §1
# [22] = tested on: NCI-H1650
# Summary of the method: as §1
compound,measurement,setting,value
NC(=O)Nc1cc(-c2cccc(F)c2)sc1C(=O)N[C@H]1CCCNC1 [AZD7762] + Cc1cc(Nc2cc(N3CCN(C)CC3)nc(Sc3ccc(NC(=O)C4CC4)cc3)n2)n[nH]1 [Tozasertib] (partner 0.1 µM),relative viability,[1]; first compound 0.01 µM,0.62
same,relative viability,[1]; first compound 0.03162 µM,0.551
same,relative viability,[1]; first compound 0.1 µM,0.585
same,relative viability,[1]; first compound 0.3162 µM,0.567
same,relative viability,[1]; first compound 1 µM,0.521
same,relative viability,[2]; first compound 0.01 µM,0.318
same,relative viability,[2]; first compound 0.03162 µM,0.279
same,relative viability,[2]; first compound 0.1 µM,0.341
same,relative viability,[2]; first compound 0.3162 µM,0.281
same,relative viability,[2]; first compound 1 µM,0.218
same,relative viability,[3]; first compound 0.01 µM,0.704
same,relative viability,[3]; first compound 0.03162 µM,0.595
same,relative viability,[3]; first compound 0.1 µM,0.677
same,relative viability,[3]; first compound 0.3162 µM,0.591
same,relative viability,[3]; first compound 1 µM,0.576
same,relative viability,[4]; first compound 0.01 µM,0.957
same,relative viability,[4]; first compound 0.03162 µM,0.935
same,relative viability,[4]; first compound 0.1 µM,0.98
same,relative viability,[4]; first compound 0.3162 µM,1.03
same,relative viability,[4]; first compound 1 µM,0.801
same,relative viability,[5]; first compound 0.01 µM,1.1
same,relative viability,[5]; first compound 0.03162 µM,0.87
same,relative viability,[5]; first compound 0.1 µM,0.714
same,relative viability,[5]; first compound 0.3162 µM,0.822
same,relative viability,[5]; first compound 1 µM,0.412
same,relative viability,[6]; first compound 0.01 µM,0.194
same,relative viability,[6]; first compound 0.03162 µM,0.186
same,relative viability,[6]; first compound 0.1 µM,0.195
same,relative viability,[6]; first compound 0.3162 µM,0.156
same,relative viability,[6]; first compound 1 µM,0.165
same,relative viability,[7]; first compound 0.01 µM,0.225
same,relative viability,[7]; first compound 0.03162 µM,0.186
same,relative viability,[7]; first compound 0.1 µM,0.153
same,relative viability,[7]; first compound 0.3162 µM,0.15
same,relative viability,[7]; first compound 1 µM,0.117
same,relative viability,[8]; first compound 0.01 µM,0.215
same,relative viability,[8]; first compound 0.03162 µM,0.218
same,relative viability,[8]; first compound 0.1 µM,0.207
same,relative viability,[8]; first compound 0.3162 µM,0.179
same,relative viability,[8]; first compound 1 µM,0.175
same,relative viability,[9]; first compound 0.01 µM,0.41
same,relative viability,[9]; first compound 0.03162 µM,0.711
same,relative viability,[9]; first compound 0.1 µM,0.558
same,relative viability,[9]; first compound 0.3162 µM,0.33
same,relative viability,[9]; first compound 1 µM,0.209
same,relative viability,[10]; first compound 0.01 µM,0.506
same,relative viability,[10]; first compound 0.03162 µM,0.394
same,relative viability,[10]; first compound 0.1 µM,0.444
same,relative viability,[10]; first compound 0.3162 µM,0.357
same,relative viability,[10]; first compound 1 µM,0.031
same,relative viability,[11]; first compound 0.01 µM,0.71
same,relative viability,[11]; first compound 0.03162 µM,0.643
same,relative viability,[11]; first compound 0.1 µM,0.709
same,relative viability,[11]; first compound 0.3162 µM,0.704
same,relative viability,[11]; first compound 1 µM,0.526
same,relative viability,[12]; first compound 0.01 µM,0.859
same,relative viability,[12]; first compound 0.03162 µM,0.891
same,relative viability,[12]; first compound 0.1 µM,0.836
same,relative viability,[12]; first compound 0.3162 µM,0.873
same,relative viability,[12]; first compound 1 µM,0.85
same,relative viability,[13]; first compound 0.01 µM,0.198
same,relative viability,[13]; first compound 0.03162 µM,0.229
same,relative viability,[13]; first compound 0.1 µM,0.193
same,relative viability,[13]; first compound 0.3162 µM,0.17
same,relative viability,[13]; first compound 1 µM,0.0829
same,relative viability,[14]; first compound 0.01 µM,0.713
same,relative viability,[14]; first compound 0.03162 µM,0.536
same,relative viability,[14]; first compound 0.1 µM,0.743
same,relative viability,[14]; first compound 0.3162 µM,0.663
same,relative viability,[14]; first compound 1 µM,0.403
same,relative viability,[15]; first compound 0.01 µM,0.662
same,relative viability,[15]; first compound 0.03162 µM,0.619
same,relative viability,[15]; first compound 0.1 µM,0.525
same,relative viability,[15]; first compound 0.3162 µM,0.596
same,relative viability,[15]; first compound 1 µM,0.35
same,relative viability,[16]; first compound 0.01 µM,0.269
same,relative viability,[16]; first compound 0.03162 µM,0.299
same,relative viability,[16]; first compound 0.1 µM,0.244
same,relative viability,[16]; first compound 0.3162 µM,0.187
same,relative viability,[16]; first compound 1 µM,0.128
same,relative viability,[17]; first compound 0.01 µM,0.395
same,relative viability,[17]; first compound 0.03162 µM,0.403
same,relative viability,[17]; first compound 0.1 µM,0.314
same,relative viability,[17]; first compound 0.3162 µM,0.374
same,relative viability,[17]; first compound 1 µM,0.198
same,relative viability,[18]; first compound 0.01 µM,0.69
same,relative viability,[18]; first compound 0.03162 µM,0.544
same,relative viability,[18]; first compound 0.1 µM,0.555
same,relative viability,[18]; first compound 0.3162 µM,0.511
same,relative viability,[18]; first compound 1 µM,0.269
same,relative viability,[19]; first compound 0.01 µM,0.253
same,relative viability,[19]; first compound 0.03162 µM,0.257
same,relative viability,[19]; first compound 0.1 µM,0.285
same,relative viability,[19]; first compound 0.3162 µM,0.301
same,relative viability,[19]; first compound 1 µM,0.248
same,relative viability,[20]; first compound 0.01 µM,0.522
same,relative viability,[20]; first compound 0.03162 µM,0.442
same,relative viability,[20]; first compound 0.1 µM,0.524
same,relative viability,[20]; first compound 0.3162 µM,0.516
same,relative viability,[20]; first compound 1 µM,0.323
same,relative viability,[21]; first compound 0.01 µM,0.325
same,relative viability,[21]; first compound 0.03162 µM,0.263
same,relative viability,[21]; first compound 0.1 µM,0.225
same,relative viability,[21]; first compound 0.3162 µM,0.398
same,relative viability,[21]; first compound 1 µM,0.292
same,relative viability,[22]; first compound 0.01 µM,0.482
same,relative viability,[22]; first compound 0.03162 µM,0.467
same,relative viability,[22]; first compound 0.1 µM,0.424
same,relative viability,[22]; first compound 0.3162 µM,0.207
same,relative viability,[22]; first compound 1 µM,0.118
